Measurements taken from patent US9409891B2, “Solid forms of an antiviral compound” (Gilead Sciences, Inc., priority 2012, dated 2016).
In brackets after ≈: the same amount, converted by molar mass. Entries after “also recorded” stand apart in the source; their conditions may differ.

What was measured:
Format in all cases: physicochemical
[1] = Stable form competition study in ACN; conditions: Forms I through V added to high concentration solution of amorphous Compound I in ACN, stirred overnight
Description: To further verify the stability of Form II, competitive crystallization was conducted by adding Forms I through V into a high concentration solution of amorphous Compound I in ACN. […] The mother liquor obtained, which was saturated in terms of Form II, was used in another test in which other forms (Forms I, III, IV and V) were added.

[2] = Hydrate screening, EtOH/water system; conditions: ethanol/water
Excerpt: When the organic component used in the solvent mixture forms solvate with Compound I, potential hydrates may not show up in the slurry screen, as shown in the hydrate screening using ethanol/water mixtures (Table 4). Form IX is a new form found in this study.

[3] = Hydrate screening, ACN/water system
[4] = Form II stability in water at elevated temperature (slurry, XRPD)
Description: During formulation, Compound I may be wet granulated and dried at <50° C. A slurry of Form II in water was stirred at 48° C. (50° C. jacket) and was sampled periodically for XRPD analysis to determine Form I content.

[5] = Seeding of Compound I solution in DIPE with Form VI; conditions: Compound I solution in DIPE seeded with Form VI; only Form II obtained
Description: In an attempt crystallize Form VI, the solution of Compound I in DIPE was seeded with Form VI. However, only Form II was obtained.

[6] = Stability and hygroscopicity under ambient conditions
[7] = Follow-up stable form screening (Form II stirred in solvents at about 22° C.); conditions: for 2-Week Form / 24 h Form: Form II stirred at about 22° C.; for solubility: about 22° C., Form II start
Description: In the follow-up stable form screening experiments, the starting materials were Form II. The solids were stirring in the solvents list below at about 22° C. in 2 ml vials.

[8] = water content 10%, water activity 0.510
[9] = water content 20%, water activity 0.654

CC1=CC[C@H](C(=O)N(c2cc(C#CC(C)(C)C)sc2C(=O)O)[C@H]2CC[C@](O)(CO[C@H]3CCOC3)CC2)CC1 (relative stereo) [Form II, 5-(3,3-dimethylbutyn-1-yl)-3-[(cis-4-hydroxy-4-{[(3S)-tetrahydrofuran-3-yloxy]methyl}cyclohexyl){[(1R)-4-methylcyclohex-3-en-1-yl]carbonyl}amino]thiophene-2-carboxylic acid]
Form detected after competitive crystallization [1]: the only detected form | Form at 2 weeks [2, 8]: solution | Form at 90 hours [2, 8]: solution | Form at 2 weeks [2, 9]: solution | Form at 90 hours [2, 9]: solution | Form at 90 hours ([2]; water content 50%, water activity 0.806): III + small | Equivalent RH up to which Form II is stable ([3]; 22° C.): ≤ 86.3 % RH | Water activity up to which Form II is stable ([3]; 22° C.): up to 0.863 | Form at 2 weeks ([3]; water content 30%, water activity 0.896, 22° C.): VIII | Form at 2 weeks ([3]; water content 32%, water activity 0.9, 22° C.): VIII | Form at 2 weeks ([3]; water content 40%, water activity 0.914, 22° C.): VIII | Form at 2 weeks ([3]; water content 50%, water activity 0.926, 22° C.): VIII | Form at 24 h or 90 h ([3]; water content 50%, water activity 0.926, 90 h, 22° C.): II + small | Form at 2 weeks ([3]; water content 60%, water activity 0.936, 22° C.): VIII | Form at 24 h or 90 h ([3]; water content 60%, water activity 0.936, 90 h, 22° C.): VIII + small | Form at 2 weeks ([3]; water content 70%, water activity 0.943, 22° C.): VIII | Form at 2 weeks ([3]; water content 80%, water activity 0.949, 22° C.): II + VIII | Form at 24 h or 90 h ([3]; water content 80.9%, water activity 0.950, 24 h, 22° C.): I + II | Form at 24 h or 90 h ([3]; water content 100%, water activity 1, 24 h, 22° C.): I + II | Form conversion in water ([4]; Form II in water at 48° C.): slowly converted to Form I; also recorded: converts slowly to Form I | Form I content by XRPD ([4]; Form II slurry in water, 48° C. (50° C. jacket), 6 hour point): not detected | Form by XRPD ([4]; Form II slurry in water, 48° C., after 30 hours): Form I became the dominant form | Relative stability of forms [5]: more stable than Form VI | Stability and hygroscopicity [6]: stable and non-hygroscopic | 2-Week Form ([7]; 2 Me-THF): solution | 24 h Form ([7]; 2 Me-THF): solution | solubility ([7]; 2 Me-THF, solution): >334 mg/mL | solubility ([7]; ACN/water (50/50)): 18 mg/mL (≈ 33.1 mM) | solubility ([7]; ACN): 6 mg/mL (≈ 11 mM) | solubility ([7]; Acetone): 241 mg/mL (≈ 443 mM) | 2-Week Form ([7]; DCM): solution | 24 h Form ([7]; DCM): solution | solubility ([7]; DCM, solution): >274 mg/mL | solubility ([7]; Ethyl Acetate): 124 mg/mL (≈ 228 mM) | solubility ([7]; Heptane): 0.05 mg/mL (≈ 0.092 mM) | solubility ([7]; Isopropyl Acetate): 59 mg/mL (≈ 109 mM) | solubility ([7]; MIBK): 116 mg/mL (≈ 213 mM) | 2-Week Form ([7]; MeOH): solution | 24 h Form ([7]; MeOH): solution | solubility ([7]; MeOH, solution): >321 mg/mL | solubility ([7]; Methyl t-butyl ether): 108 mg/mL (≈ 199 mM) | 2-Week Form ([7]; THF): solution | 24 h Form ([7]; THF): solution | solubility ([7]; THF, solution): >346 mg/mL | solubility ([7]; Toluene): 40 mg/mL (≈ 73.6 mM) | 24 h Form ([7]; Water): II + I | Stability of Form II in tested solvents (summary of Table 2) ([7]; stirred at about 22° C., up to 2 weeks): stable in most tested solvents except for alcohols, water, and MEK
